Measured values from US20100204135A1, “USE OF LVV-HEMORPHIN-6 AND OPTIONALLY AF12198 AS THERAPEUTIC AGENT(S)” (priority 2007, published 2010).
Where no end group is shown, it is not given here.

What was measured:
HCMV strain AD169 = assay: HCMV plaque formation assay in MRC-5 cells; format: cell-based; settings: for inhibition of HCMV plaque formation as compared to the virus control experiment: 10 micrograms per ml, 7-10 days
Interleukin-2 (IL-2) = assay: Th1/Th2 cytokine profiling assay, IL-2; format: cell-based, mouse; settings: 10 micrograms per ml; Ovalbumin-restimulated Balb/c spleen cells, 72 hours
Procedure: (§1) The Balb/c mice (originated in 1923, it is a popular strain and is used in many different research disciplines. Also classified as an inbred from the production of 20 size) were immunized on Days 1, 15, and 29 with Ovalbumin (Ovalbumin is the main protein found in egg white, commonly used to stimulate an immunological reaction in test animals) in PBS (5 micrograms/injection). On day 50, spleens of the mice were harvested (3 weeks after last boost with Ovalbumin). Cells were cultured (2×10^5/well in triplicate) and incubated with culture medium or test peptides—10 micrograms per ml—for 30 min. Thereafter, additional Ovalbumin was added to the cells at 10 micrograms/ml for in vitro restimulation of the cells. 72 hours later, cell supernatants were harvested and assayed using the Becton Dickinson Mouse Th1/Th2 Cytokine CBA Kit. This kit can be used to measure Interleukin-2 (IL-2), Interleukin-4 (IL-4), Interleukin-5 (IL-5), Interferon-γ (IFN-γ), and Tumor Necrosis Factor-a (TNF-a) protein levels in a single sample. The kit performance has been optimized for analysis of physiologically relevant concentrations (μg/ml levels) of specific cytokine proteins in tissue culture supernatants and serum samples.

Interleukin-4 (IL-4) = assay: Th1/Th2 cytokine profiling assay, IL-4; format: cell-based, mouse; settings: 10 micrograms per ml; Ovalbumin-restimulated Balb/c spleen cells, 72 hours
Procedure: as §1

[1] = tested on: hepatitis B virus (HBV) ayw strain; assay: HBV experimental assay system, HepG2-2.2.15, TaqMan PCR of secreted HBV DNA; format: cell-based; settings: 10 micrograms per ml; HepG2-2.2.15, six days, HBV DNA in supernatant
Interleukin-5 (IL-5) = assay: Th1/Th2 cytokine profiling assay, IL-5; format: cell-based, mouse; settings: 10 micrograms per ml; Ovalbumin-restimulated Balb/c spleen cells, 72 hours
Procedure: as §1

[2] = tested on: Tumor Necrosis Factor-a (TNF-a); assay: Th1/Th2 cytokine profiling assay, TNF-alpha; format: cell-based, mouse; settings: 10 micrograms per ml; Ovalbumin-restimulated Balb/c spleen cells, 72 hours
Procedure: as §1

Human A549 cells = assay: Apoptosis prevention assay (Annexin-5, C2 ceramide); format: cell-based; settings: 10 micrograms per ml; A549 pretreated 30 min, then C2 ceramide
HUVEC = assay: Endothelial tube formation assay; format: cell-based, human; settings: 10 micrograms per ml, 20 hours
From the text: Positive control was vehicle only.

[3] = tested on: Primary Human endothelial cells (HUVEC); assay: Endothelial cell migration assay; format: cell-based; settings: 10 micrograms per ml, 22 hours
Procedure: Thereafter, designated concentration of testing peptides—10 micrograms per ml—was added in duplicate wells.

Interferon-γ (IFN-γ) = assay: Th1/Th2 cytokine profiling assay, IFN-γ; format: cell-based, mouse; settings: 10 micrograms per ml; Ovalbumin-restimulated Balb/c spleen cells, 72 hours
Procedure: as §1

`Nc1nc(O)c2ncn(COC(CO)CO)c2n1` [Ganciclovir, reference compound] was tested, and the “antiviral activity of positive control compound” value (HCMV strain AD169; positive control, HCMV AD169) was “expected levels of antiviral activity”.

In the case of “Leu-Val-Val-Tyr-Pro-Trp-Thr-Gln-Arg-OH (LVVYPWTQR-OH) [Peptide 1]”, the “increase of the production of IL-2 in murine spleen cells” value (Interleukin-2 (IL-2)) is reported as 54.3%, the “change of the production of IL-4 in murine spleen cells” value (Interleukin-4 (IL-4)) is reported as “did not significantly change” and the “inhibition of HBV replication as compared to the virus control infection” value [1] is reported as 24.3%. For the same compound, the “decrease of the production of IL-5 in murine spleen cells” value (Interleukin-5 (IL-5)) was 33%, the “change of the production of TNF-alpha in murine spleen cells” value [2] was “did not significantly change” and the “effect on the ceramide-induced apoptosis on human lung cells” value (Human A549 cells) was “did not reduce”. For the same compound, the “inhibition of HCMV plaque formation as compared to the virus control experiment” value (HCMV strain AD169) was “did not inhibit”, the “increase of the tube formation of human endothelial cells” value (HUVEC) was 2% and the “inhibition of the migration of human endothelial cells” value [3] was 4%. For the same compound, the “decrease of the production of IFN-γ in murine spleen cells” value (Interferon-γ (IFN-γ)) was “did not significantly change”.

In the case of “Phe-Glu-Trp-Thr-Pro-Gly-Tyr-Trp-Gln-Pro-Tyr-Ala-Leu-Pro-Leu-OH (FEWTPGYWQPYALPL-OH) [Peptide 2]”, the “increase of the production of IL-2 in murine spleen cells” value (Interleukin-2 (IL-2)) is reported as 68.1%, the “change of the production of IL-4 in murine spleen cells” value (Interleukin-4 (IL-4)) is reported as “did not significantly change” and the “inhibition of HBV replication as compared to the virus control infection” value [1] is reported as 26.3%. For the same compound, the “decrease of the production of IL-5 in murine spleen cells” value (Interleukin-5 (IL-5)) was 38.8%, the “change of the production of TNF-alpha in murine spleen cells” value [2] was “did not significantly change” and the “effect on the ceramide-induced apoptosis on human lung cells” value (Human A549 cells) was 28.6%. For the same compound, the “inhibition of HCMV plaque formation as compared to the virus control experiment” value (HCMV strain AD169) was “did not inhibit”, the “increase of the tube formation of human endothelial cells” value (HUVEC) was 4% and the “decrease of the production of IFN-γ in murine spleen cells” value (Interferon-γ (IFN-γ)) was 37.5%.
